# US20040191902A1, “Growth and differentiation of stem cells” (Pfizer Inc, priority 2003, published 2004)
# Legend:
# [1] = system: CYP3a, CYP2d, CYP2e1 and CYP1a2 in hepatocyte-like cells; experiment: Conversion of test compounds by hepatocyte-like cells (HPLC and mass spectrometry of supernatants)
# Experimental: The presence of CYP proteins in the hepatocyte-like cells was also determined by monitoring the conversion of certain compounds added to the hepatocyte-like cells. Two test compounds (7-ethoxy-coumarin and dextromethorphan) were added to hepatocyte-like cells. The supernatants of the cells were then subjected to high pressure liquid chromatography (HPLC) and mass spectrometry to identify products of the conversion of the test compounds by CYP3a, CYP2d, CYP2e1 and CYP1a2.
# hepatocyte-like cells = experiment: Dibenzylfluorescein (DBF) assay for metabolic activity of hepatocyte-like cells; format: in vitro ADME, mouse; settings: hepatocyte-like cells differentiated in presence or absence of HPO
# Experimental: Another test that was used to characterize the hepatocyte-like cells is the dibenzylfluorescein (DBF) assay for metabolic activity. See, for example, Stresser et al., Drug Metab. Disp., 28:1440-48 (2000). These assays were conducted using a DBF compound (Molecular Probes, Eugene Oreg.) according to the manufacturer's recommendations.
# 4MBr-5 cell line = settings: 3H-thymidine incorporation, typical range; cited from earlier work
# TF-1 cell line = settings: proliferation of TF-1; typical range; cited from earlier work
# Balb/3T3 cell line = settings: 3H-thymidine incorporation, typical range; cited from earlier work
# [2] = system: cells differentiating from ES cells into hepatocyte-like cells; experiment: In vitro differentiation of mouse ES cells into hepatocyte-like cells with hepatopoietin added to the media; format: cell-based
# Experimental: Mouse ES cells were differentiated into hepatocyte-like cells as described above, with the addition of 50 ng/ml mouse hepatopoietin protein to the HepII, HepIII and/or HepIV media. The mouse hepatopoietin protein consisted of a portion of the wild-type protein, which portion has the amino acid sequence set forth in SEQ ID NO: 16.
# The presence of hepatopoietin in either medium had this effect, but the strongest effect was seen when it was included in all three media, i.e., during the middle stage, the late stage and the maturation and selection stage. In this case, it appeared that over 90% of the cells in the culture were hepatocyte-like cells.
# NIH/3T3 cells = settings: 3H-thymidine incorporation, quiescent NIH/3T3; typical range; cited from earlier work
molecule,measurement,setting,value
CCOc1ccc2ccc(=O)oc2c1 [7-ethoxy-coumarin],"conversion products by CYP3a, CYP2d, CYP2e1 and CYP1a2",[1]; hepatocytes,expected conversion products were obtained
"O=C(OCc1ccccc1)c1ccccc1-c1c2ccc(=O)cc-2oc2cc(OCc3ccccc3)ccc12 [DBF, dibenzylfluorescein]",DBF assay for metabolic activity,hepatocyte-like cells,positive
COc1ccc2c(c1)[C@]13CCCC[C@@H]1[C@H](C2)N(C)CC3 [dextromethorphan],"conversion products by CYP3a, CYP2d, CYP2e1 and CYP1a2","[1]; added to hepatocyte-like cells, supernatants by HPLC and mass spectrometry",expected conversion products were obtained
human recombinant HGF: human recombinant hepatocyte growth factor,ED50,4MBr-5 cell line,20 to 40 ng/mL
human recombinant OSM: human recombinant oncostatin M,ED50,TF-1 cell line,0.1 to 3 ng/mL
human recombinant aFGF: human recombinant acidic fibroblast growth factor,ED50,Balb/3T3 cell line,2 to 10 ng/mL
"mouse HPO: portion of wild-type mouse hepatopoietin, 125 amino acids, SEQ ID NO: 16, produced in E. coli",proliferation of cells giving rise to hepatocyte-like cells,"[2]; 50 ng/ml in HepII, HepIII and/or HepIV media",stimulates the proliferation
same,cells in the culture that were hepatocyte-like cells,"[2]; 50 ng/ml included in all three media (middle, late, maturation and selection stages)",over 90%
"mouse recombinant OSM: mouse recombinant oncostatin M (protein, UniProt P53347 25-206, looked up) Oncostatin-M: NRGCSNSSSQLLSQLQNQANLTGNTESLLEPYIRLQNLNTPDLRAACTQHSVAFPSEDTLRQLSKPHFLSTVYTTLDRVLYQLDALRQKFLKTPAFPKLDSARHNILGIRNNVFCMARLLNHSLEIPEPTQTDSGASRSTTTPDVFNTKIGSCGFLWGYHRFMGSVGRVFREWDDGSTRSRR",ED50,NIH/3T3 cells,2 to 4 ng/mL
